Experimental data taken from US8735322B2, “Herbicides” (Syngenta Limited, priority 2008, dated 2014).

Columns and labels:
Assay type in all cases: in vivo
Setaria faberi (SETFA) [1] = experiment: Example B pre-emergence herbicidal activity, glasshouse pot test; conditions: 312 h, rate 1000 g/ha, evaluated after 13 days, read-out: herbicidal damage SETFA (100=total damage to plant; 0=no damage to plant)
Description: (§1) Seeds of a variety of test species were sown in standard soil in pots. After cultivation for one day (pre-emergence) or after 8 days cultivation (post-emergence) under controlled conditions in a glasshouse (at 24/16° C., day/night; 14 hours light; 65% humidity), the plants were sprayed with an aqueous spray solution derived from the formulation of the technical active ingredient in acetone/water (50:50) solution containing 0.5% Tween 20 (polyoxyethelyene sorbitan monolaurate, CAS RN 9005-64-5). The test plants were then grown in a glasshouse under controlled conditions in a glasshouse (at 24/16° C., day/night; 14 hours light; 65% humidity) and watered twice daily. After 13 days for pre and post-emergence, the test was evaluated (100=total damage to plant; 0=no damage to plant). Alopecurus myosuroides (ALOMY), Avena fatua (AVEFA), Setaria faberi (SETFA), Echinochloa crus-galli (ECHCG), Solanum nigrum (SOLNI) and Amaranthus retroflexus (AMARE) Pre-Emergence Activity

[2] = test system: Alopecurus myosuroides (ALOMY); experiment: as above; conditions: 312 h, rate 1000 g/ha, evaluated after 13 days, read-out: herbicidal damage ALOMY (100=total damage to plant; 0=no damage to plant)
Description: as §1

Solanum nigrum (SOLNI) [3] = experiment: as above; conditions: 312 h, rate 1000 g/ha, evaluated after 13 days, read-out: herbicidal damage SOLNI (100=total damage to plant; 0=no damage to plant)
Description: as §1

[4] = test system: Amaranthus retroflexus (AMARE); experiment: as above; conditions: 312 h, rate 1000 g/ha, evaluated after 13 days, read-out: herbicidal damage AMARE (100=total damage to plant; 0=no damage to plant)
Description: as §1

Avena fatua (AVEFA) [5] = experiment: as above; conditions: 312 h, rate 1000 g/ha, evaluated after 13 days, read-out: herbicidal damage AVEFA (100=total damage to plant; 0=no damage to plant)
Description: as §1

[6] = test system: Echinochloa crus-galli (ECHCG); experiment: as above; conditions: 312 h, rate 1000 g/ha, evaluated after 13 days, read-out: herbicidal damage ECHCG (100=total damage to plant; 0=no damage to plant)
Description: as §1

Setaria faberi (SETFA) [7] = experiment: Example B post-emergence herbicidal activity, glasshouse pot test; conditions: 312 h, rate 1000 g/ha, evaluated after 13 days, read-out: herbicidal damage SETFA (100=total damage to plant; 0=no damage to plant)
Description: as §1, with “Post-Emergence” for “Pre-Emergence”

[8] = test system: Alopecurus myosuroides (ALOMY); experiment: as above; conditions: 312 h, rate 1000 g/ha, evaluated after 13 days, read-out: herbicidal damage ALOMY (100=total damage to plant; 0=no damage to plant)
Description: as §1, with “Post-Emergence” for “Pre-Emergence”

Solanum nigrum (SOLNI) [9] = experiment: as above; conditions: 312 h, rate 1000 g/ha, evaluated after 13 days, read-out: herbicidal damage SOLNI (100=total damage to plant; 0=no damage to plant)
Description: as §1, with “Post-Emergence” for “Pre-Emergence”

[10] = test system: Amaranthus retroflexus (AMARE); experiment: as above; conditions: 312 h, rate 1000 g/ha, evaluated after 13 days, read-out: herbicidal damage AMARE (100=total damage to plant; 0=no damage to plant)
Description: as §1, with “Post-Emergence” for “Pre-Emergence”

Avena fatua (AVEFA) [11] = experiment: as above; conditions: 312 h, rate 1000 g/ha, evaluated after 13 days, read-out: herbicidal damage AVEFA (100=total damage to plant; 0=no damage to plant)
Description: as §1, with “Post-Emergence” for “Pre-Emergence”

[12] = test system: Echinochloa crus-galli (ECHCG); experiment: as above; conditions: 312 h, rate 1000 g/ha, evaluated after 13 days, read-out: herbicidal damage ECHCG (100=total damage to plant; 0=no damage to plant)
Description: as §1, with “Post-Emergence” for “Pre-Emergence”

Row | Structure (SMILES) | pest or weed control at 1000 g/ha (Setaria faberi (SETFA) [1]) | pest or weed control at 1000 g/ha [2] | pest or weed control at 1000 g/ha (Solanum nigrum (SOLNI) [3]) | pest or weed control at 1000 g/ha [4] | pest or weed control at 1000 g/ha (Avena fatua (AVEFA) [5]) | pest or weed control at 1000 g/ha [6] | pest or weed control at 1000 g/ha (Setaria faberi (SETFA) [7]) | pest or weed control at 1000 g/ha [8] | pest or weed control at 1000 g/ha (Solanum nigrum (SOLNI) [9]) | pest or weed control at 1000 g/ha [10] | pest or weed control at 1000 g/ha (Avena fatua (AVEFA) [11]) | pest or weed control at 1000 g/ha [12]
1 | Cc1ccc(-c2ccc(Cl)cc2)cc1C1=C(O)CC(CC2OCC(C3CCOCC3)O2)CC1=O (stereo not drawn) [Compound A-59] | 60% | 20% | 0% | 0% | 0% | 0% | 90% | 70% | 0% | 0% | 20% | 90%
2 | Cc1ccc(-c2ccc(Cl)cc2)cc1C1=C(O)CC(CC2OCC(CC3CCOCC3)O2)CC1=O (stereo not drawn) [Compound A-60] | 30% | 0% | 0% | 0% | 0% | 30% | 90% | 60% | 0% | 0% | 10% | 90%
3 | Cc1ccc(-c2ccc(Cl)cc2)cc1C1=C(O)CC(CC2O[C@H]3COC[C@H]3O2)CC1=O (stereo partly drawn) [Compound A-61] | 30% | 0% | 0% | 0% | 0% | 20% | 100% | 90% | 0% | 0% | 80% | 100%
4 | Cc1ccc(-c2ccc(Cl)cc2)cc1C1=C(O)CC(CC2OCCCCO2)CC1=O (stereo not drawn) [Compound A-62] | 60% | 20% | 0% | 0% | 0% | 50% | 100% | 90% | 0% | 0% | 80% | 100%
5 | COCC1COC(CC2CC(=O)C(c3cc(-c4ccc(Cl)cc4)ccc3C)=C(O)C2)O1 (stereo not drawn) [Compound A-63] | 70% | 0% | 0% | 20% | 0% | 20% | 100% | 90% | 0% | 0% | 90% | 100%
6 | Cc1ccc(-c2ccc(Cl)cc2)cc1C1=C(O)CC(CC2OCC(C)CO2)CC1=O (stereo not drawn) [Compound A-64] | 50% | 0% | 0% | 0% | 0% | 50% | 100% | 80% | 0% | 0% | 80% | 100%
7 | Cc1ccc(-c2ccc(Cl)cc2)cc1C1=C(O)CC(CC2OCC3(CC3)CO2)CC1=O (stereo not drawn) [Compound A-65] | 60% | 20% | 20% | 30% | 0% | 70% | 70% | 40% | 60% | 90% | 20% | 70%
